In ChEMBL document CHEMBL1212833, “Protein lysine methyltransferase G9a inhibitors: design, synthesis, and structure activity relationships of 2,4-diamino-7-aminoalkoxy-quinazolines” (J Med Chem, 2010):

Experiments:
[1] = target: T1, Histone-lysine N-methyltransferase EHMT2 (Homo sapiens, UniProt Q96KQ7); assay: Inhibition of methyl transferase activity of G9a assessed as inhibition of H3K9 methylation by chemiluminescence based oxygen tunneling assay
T1 sequence (Q96KQ7 whole entry): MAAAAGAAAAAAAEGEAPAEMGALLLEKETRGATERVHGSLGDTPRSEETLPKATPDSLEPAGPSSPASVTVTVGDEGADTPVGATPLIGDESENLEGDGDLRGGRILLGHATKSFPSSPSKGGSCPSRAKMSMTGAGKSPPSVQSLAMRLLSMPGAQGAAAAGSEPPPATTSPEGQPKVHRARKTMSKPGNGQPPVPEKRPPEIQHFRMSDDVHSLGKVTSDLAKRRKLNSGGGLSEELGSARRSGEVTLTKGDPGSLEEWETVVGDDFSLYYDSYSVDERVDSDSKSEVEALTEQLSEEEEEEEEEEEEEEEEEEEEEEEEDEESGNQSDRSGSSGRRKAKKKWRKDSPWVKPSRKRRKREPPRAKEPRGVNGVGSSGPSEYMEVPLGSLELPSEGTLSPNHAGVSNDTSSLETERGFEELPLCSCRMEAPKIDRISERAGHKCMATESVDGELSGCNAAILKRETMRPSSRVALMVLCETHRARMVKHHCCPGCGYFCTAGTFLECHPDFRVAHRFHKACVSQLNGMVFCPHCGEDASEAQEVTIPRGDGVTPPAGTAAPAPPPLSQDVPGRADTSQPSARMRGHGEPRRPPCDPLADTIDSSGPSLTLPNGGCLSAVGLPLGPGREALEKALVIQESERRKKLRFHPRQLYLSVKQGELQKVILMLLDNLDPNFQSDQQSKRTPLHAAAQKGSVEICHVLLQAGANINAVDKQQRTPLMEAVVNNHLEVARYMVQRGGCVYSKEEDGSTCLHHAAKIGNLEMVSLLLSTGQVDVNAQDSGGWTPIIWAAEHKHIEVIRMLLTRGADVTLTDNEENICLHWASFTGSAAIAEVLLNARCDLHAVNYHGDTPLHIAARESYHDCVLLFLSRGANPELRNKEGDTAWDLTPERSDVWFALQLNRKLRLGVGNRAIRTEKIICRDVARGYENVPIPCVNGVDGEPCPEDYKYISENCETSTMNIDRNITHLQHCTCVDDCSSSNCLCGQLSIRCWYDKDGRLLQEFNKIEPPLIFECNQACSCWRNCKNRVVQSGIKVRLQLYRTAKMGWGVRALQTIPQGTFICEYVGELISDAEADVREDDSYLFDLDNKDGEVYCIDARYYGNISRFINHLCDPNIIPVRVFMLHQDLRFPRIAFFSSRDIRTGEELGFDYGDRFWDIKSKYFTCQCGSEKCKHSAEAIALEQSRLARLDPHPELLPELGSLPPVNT

[2] = target: T1, Histone-lysine N-methyltransferase EHMT2; assay: Activity at methyl transferase activity G9a by enzyme coupled S-adenocylehomocystein detection assay
[3] = target: T2, Histone-lysine N-methyltransferase EHMT1 (Homo sapiens, UniProt Q9H9B1); assay: Activity at methyl transferase activity GLP by chemiluminescence based oxygen tunneling assay
T2 sequence (Q9H9B1 whole entry): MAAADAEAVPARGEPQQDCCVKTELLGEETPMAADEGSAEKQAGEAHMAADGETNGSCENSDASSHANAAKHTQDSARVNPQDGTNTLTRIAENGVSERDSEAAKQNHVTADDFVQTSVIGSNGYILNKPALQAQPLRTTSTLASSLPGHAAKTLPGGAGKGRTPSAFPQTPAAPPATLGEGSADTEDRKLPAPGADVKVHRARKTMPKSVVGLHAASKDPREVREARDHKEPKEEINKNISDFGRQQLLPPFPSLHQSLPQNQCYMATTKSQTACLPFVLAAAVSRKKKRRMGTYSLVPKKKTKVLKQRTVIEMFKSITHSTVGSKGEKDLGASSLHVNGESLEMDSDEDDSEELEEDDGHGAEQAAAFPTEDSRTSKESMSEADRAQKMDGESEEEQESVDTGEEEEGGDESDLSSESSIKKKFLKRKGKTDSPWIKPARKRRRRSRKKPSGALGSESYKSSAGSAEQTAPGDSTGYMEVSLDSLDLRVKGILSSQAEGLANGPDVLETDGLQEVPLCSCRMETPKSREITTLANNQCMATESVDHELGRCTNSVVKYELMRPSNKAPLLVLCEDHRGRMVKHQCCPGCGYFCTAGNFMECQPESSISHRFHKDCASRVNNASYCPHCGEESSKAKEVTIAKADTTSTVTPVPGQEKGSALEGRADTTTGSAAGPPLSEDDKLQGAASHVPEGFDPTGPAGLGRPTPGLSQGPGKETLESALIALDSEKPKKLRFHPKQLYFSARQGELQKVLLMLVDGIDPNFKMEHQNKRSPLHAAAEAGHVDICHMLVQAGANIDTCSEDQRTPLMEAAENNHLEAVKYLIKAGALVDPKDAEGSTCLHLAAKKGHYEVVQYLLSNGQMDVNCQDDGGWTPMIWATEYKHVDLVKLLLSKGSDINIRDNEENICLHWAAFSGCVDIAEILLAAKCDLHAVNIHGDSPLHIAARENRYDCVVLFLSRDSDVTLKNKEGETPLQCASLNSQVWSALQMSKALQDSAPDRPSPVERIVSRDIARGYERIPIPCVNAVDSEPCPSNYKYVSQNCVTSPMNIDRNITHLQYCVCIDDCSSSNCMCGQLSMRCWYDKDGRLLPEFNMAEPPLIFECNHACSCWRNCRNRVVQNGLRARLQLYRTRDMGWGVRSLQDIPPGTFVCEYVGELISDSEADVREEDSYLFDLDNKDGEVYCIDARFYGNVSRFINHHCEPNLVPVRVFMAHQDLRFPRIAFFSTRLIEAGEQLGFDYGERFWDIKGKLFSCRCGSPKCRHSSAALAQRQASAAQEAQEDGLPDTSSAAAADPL

[4] = target: T2, Histone-lysine N-methyltransferase EHMT1; assay: Activity at methyl transferase activity GLP by enzyme coupled S-adenocylehomocystein detection assay
[5] = target: T3, Histone-lysine N-methyltransferase SETD7 (Homo sapiens, UniProt Q8WTS6); assay: Activity at methyl transferase activity SET7/9 by enzyme coupled S-adenocylehomocystein detection assay
T3 sequence (Q8WTS6 whole entry): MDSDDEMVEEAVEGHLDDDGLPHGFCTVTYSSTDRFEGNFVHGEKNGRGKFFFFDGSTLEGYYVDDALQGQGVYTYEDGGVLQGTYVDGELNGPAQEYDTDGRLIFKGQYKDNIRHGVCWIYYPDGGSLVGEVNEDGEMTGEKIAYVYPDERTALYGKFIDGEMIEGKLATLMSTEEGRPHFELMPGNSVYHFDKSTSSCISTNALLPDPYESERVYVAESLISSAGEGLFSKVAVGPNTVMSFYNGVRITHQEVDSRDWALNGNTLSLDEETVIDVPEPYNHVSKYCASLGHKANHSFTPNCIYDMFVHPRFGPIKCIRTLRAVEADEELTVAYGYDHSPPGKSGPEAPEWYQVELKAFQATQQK

[6] = target: T4, N-lysine methyltransferase KMT5A (Homo sapiens, UniProt Q9NQR1); assay: Activity at methyl transferase activity SET8/preSet7 by enzyme coupled S-adenocylehomocystein detection assay
T4 sequence (Q9NQR1 whole entry): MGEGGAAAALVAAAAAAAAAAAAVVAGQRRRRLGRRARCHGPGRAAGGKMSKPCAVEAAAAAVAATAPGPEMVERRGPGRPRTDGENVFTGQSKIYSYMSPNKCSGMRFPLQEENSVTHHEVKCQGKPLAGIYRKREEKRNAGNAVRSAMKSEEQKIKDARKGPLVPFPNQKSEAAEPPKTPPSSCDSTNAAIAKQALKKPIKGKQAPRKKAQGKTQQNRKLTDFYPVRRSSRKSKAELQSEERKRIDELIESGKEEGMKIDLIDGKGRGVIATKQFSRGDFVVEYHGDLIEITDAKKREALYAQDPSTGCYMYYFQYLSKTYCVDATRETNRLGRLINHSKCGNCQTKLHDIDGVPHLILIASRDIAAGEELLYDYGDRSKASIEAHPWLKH

[7] = target: Protein arginine N-methyltransferase 3 (Homo sapiens, UniProt O60678); assay: Activity at methyl transferase activity PRMT3 by enzyme coupled S-adenocylehomocystein detection assay
Chain of Protein arginine N-methyltransferase 3 (O60678 whole entry): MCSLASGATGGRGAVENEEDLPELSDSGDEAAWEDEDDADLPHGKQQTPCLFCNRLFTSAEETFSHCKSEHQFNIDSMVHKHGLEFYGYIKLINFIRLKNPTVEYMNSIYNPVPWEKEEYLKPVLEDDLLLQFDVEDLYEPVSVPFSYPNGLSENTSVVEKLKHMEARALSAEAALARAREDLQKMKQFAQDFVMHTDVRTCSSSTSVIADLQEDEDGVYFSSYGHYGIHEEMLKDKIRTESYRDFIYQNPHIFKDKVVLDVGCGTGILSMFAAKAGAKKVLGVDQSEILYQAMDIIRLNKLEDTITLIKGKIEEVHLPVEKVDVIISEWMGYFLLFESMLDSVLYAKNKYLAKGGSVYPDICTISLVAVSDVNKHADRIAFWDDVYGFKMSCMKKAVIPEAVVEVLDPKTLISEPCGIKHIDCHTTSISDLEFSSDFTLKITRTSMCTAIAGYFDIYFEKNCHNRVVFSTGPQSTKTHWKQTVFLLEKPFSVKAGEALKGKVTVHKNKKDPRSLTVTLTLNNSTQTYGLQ

[8] = Activity at methyl transferase activity JMJD2E by formaldehyde dehydrogenase-coupled assay

For CNc1nc(N2CCCN(C)CC2)nc2cc(OC)c(OC)cc12, the IC50 [1] was greater than 10000 nM.
COc1cc2c(NC3CCN(C)CC3)nc(N3CCCN(C)CC3)nc2cc1OCCCCN(C)C showed an IC50 [1] of 110 nM and an IC50 [2] of 140 nM.
For COc1cc2c(NC3CCN(C)CC3)nc(N3CCCN(C)CC3)nc2cc1OCCCCCN(C)C, the IC50 [2] was 95 nM.
In the case of CNCCCOc1cc2nc(N3CCCN(C)CC3)nc(NC3CCN(C)CC3)c2cc1OC, the IC50 [2] is reported as 120 nM.
CCN(CC)CCCOc1cc2nc(N3CCCN(C)CC3)nc(NC3CCN(C)CC3)c2cc1OC gave an IC50 [2] of 52 nM.
CCCN(C)CCCOc1cc2nc(N3CCCN(C)CC3)nc(NC3CCN(C)CC3)c2cc1OC gave an IC50 [2] of 51 nM.
For COc1cc2c(NC3CCN(C)CC3)nc(N3CCCN(C)CC3)nc2cc1OCCCN1CCOCC1, the IC50 [1] was 780 nM and the IC50 [2] was 880 nM.
In the case of COCCCCOc1cc2nc(N3CCCN(C)CC3)nc(NC3CCN(C)CC3)c2cc1OC, the IC50 [1] is reported as greater than 10000 nM.
COc1cc2c(NC3CCN(C)CC3)nc(N3CCCN(C)CC3)nc2cc1OCCCCNC(=O)OC(C)(C)C showed an IC50 [1] greater than 10000 nM.
COc1cc2c(NC3CCN(C)CC3)nc(N3CCCN(C)CC3)nc2cc1OCCCCCN showed an IC50 [1] of 110 nM and an IC50 [2] of 235 nM.
Compound COc1cc2c(NC3CCN(C)CC3)nc(N3CCCN(C)CC3)nc2cc1OCCCCC(N)=O has an IC50 [1] greater than 10000 nM.
In the case of COc1cc2c(NC3CCN(C)CC3)nc(N3CCCN(C)CC3)nc2cc1OCCOCCN(C)C, the IC50 [1] is reported as 6 nM, the IC50 [3] is reported as 23 nM and the IC50 [4] is reported as 15 nM. For the same compound, the IC50 [5] was greater than 40000 nM, the IC50 [6] was greater than 40000 nM and the IC50 [7] was greater than 40000 nM. For the same compound, the IC50 [8] was greater than 57000 nM.
COc1cc2c(NC3CCN(C)CC3)nc(N3CCCN(C)CC3)nc2cc1OCCOCCN1CCCC1 showed an IC50 [1] of 110 nM and an IC50 [2] of 57 nM.
COc1cc2c(NC3CCN(C)CC3)nc(N3CCCN(C)CC3)nc2cc1OCCN(C)CCN(C)C gave an IC50 [1] of 173 nM and an IC50 [2] of 345 nM.
In the case of COc1cc2c(NC3CCN(C)CC3)nc(N3CCCN(C)CC3)nc2cc1OCC1CCCNC1 (centres undefined), the IC50 [1] is reported as 5100 nM and the IC50 [2] is reported as 1500 nM.
COc1cc2nc(N3CCCN(C)CC3)nc(N(C)C3CCN(C)CC3)c2cc1OC gave an IC50 [1] greater than 10000 nM.
In the case of COc1cc2nc(N3CCCN(C)CC3)nc(OC3CCN(C)CC3)c2cc1OC, the IC50 [1] is reported as greater than 10000 nM.
In the case of COc1cc2nc(N3CCCN(C)CC3)nc(NC3CCN(C)C3)c2cc1OC (centres undefined), the IC50 [2] is reported as 910 nM.
COc1cc2c(NC3CCN(C)CC3)nc(N3CCCN(C)CC3)nc2cc1OCCCN(C)C gave an IC50 [5] greater than 40000 nM, an IC50 [6] greater than 40000 nM and an IC50 [7] greater than 40000 nM. It also gave an IC50 [8] greater than 57000 nM.
